Source: ChEMBL document CHEMBL4138087, “Designing multi-targeted agents: An emerging anticancer drug discovery paradigm” (Eur J Med Chem, 2017)

Key:
[1] = system: A-431; test: Antiproliferative activity in human A431 Cells after 72 hrs by SRB assay; type: functional, cell-based; details: A-431, 72 h
[2] = system: A-431; test: Potency index, ratio of temozolomide IC50 to compound IC50 for human A431 Cells; type: functional
[3] = target: Proto-oncogene tyrosine-protein kinase Src (Homo sapiens, UniProt P12931); test: Inhibition of Src kinase (unknown origin)
Proto-oncogene tyrosine-protein kinase Src, sequence (P12931 2-536 limits assumed): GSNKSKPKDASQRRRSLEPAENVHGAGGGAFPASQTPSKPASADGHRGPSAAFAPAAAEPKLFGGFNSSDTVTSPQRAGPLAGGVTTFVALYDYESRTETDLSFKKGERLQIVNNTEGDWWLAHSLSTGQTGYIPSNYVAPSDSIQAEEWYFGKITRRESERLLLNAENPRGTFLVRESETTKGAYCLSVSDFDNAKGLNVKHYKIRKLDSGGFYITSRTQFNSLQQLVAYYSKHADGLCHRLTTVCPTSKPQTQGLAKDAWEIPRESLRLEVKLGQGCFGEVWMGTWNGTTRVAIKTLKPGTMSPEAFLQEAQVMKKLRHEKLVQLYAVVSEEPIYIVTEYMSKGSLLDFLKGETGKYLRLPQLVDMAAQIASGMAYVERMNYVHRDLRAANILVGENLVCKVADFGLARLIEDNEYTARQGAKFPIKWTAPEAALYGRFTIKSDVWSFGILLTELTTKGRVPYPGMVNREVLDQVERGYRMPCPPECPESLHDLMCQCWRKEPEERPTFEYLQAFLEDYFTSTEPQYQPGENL

[4] = target: Epidermal growth factor receptor (Homo sapiens, UniProt P00533); test: Inhibition of human A431 cells derived EGFR by ELISA
Epidermal growth factor receptor, sequence (P00533 whole entry): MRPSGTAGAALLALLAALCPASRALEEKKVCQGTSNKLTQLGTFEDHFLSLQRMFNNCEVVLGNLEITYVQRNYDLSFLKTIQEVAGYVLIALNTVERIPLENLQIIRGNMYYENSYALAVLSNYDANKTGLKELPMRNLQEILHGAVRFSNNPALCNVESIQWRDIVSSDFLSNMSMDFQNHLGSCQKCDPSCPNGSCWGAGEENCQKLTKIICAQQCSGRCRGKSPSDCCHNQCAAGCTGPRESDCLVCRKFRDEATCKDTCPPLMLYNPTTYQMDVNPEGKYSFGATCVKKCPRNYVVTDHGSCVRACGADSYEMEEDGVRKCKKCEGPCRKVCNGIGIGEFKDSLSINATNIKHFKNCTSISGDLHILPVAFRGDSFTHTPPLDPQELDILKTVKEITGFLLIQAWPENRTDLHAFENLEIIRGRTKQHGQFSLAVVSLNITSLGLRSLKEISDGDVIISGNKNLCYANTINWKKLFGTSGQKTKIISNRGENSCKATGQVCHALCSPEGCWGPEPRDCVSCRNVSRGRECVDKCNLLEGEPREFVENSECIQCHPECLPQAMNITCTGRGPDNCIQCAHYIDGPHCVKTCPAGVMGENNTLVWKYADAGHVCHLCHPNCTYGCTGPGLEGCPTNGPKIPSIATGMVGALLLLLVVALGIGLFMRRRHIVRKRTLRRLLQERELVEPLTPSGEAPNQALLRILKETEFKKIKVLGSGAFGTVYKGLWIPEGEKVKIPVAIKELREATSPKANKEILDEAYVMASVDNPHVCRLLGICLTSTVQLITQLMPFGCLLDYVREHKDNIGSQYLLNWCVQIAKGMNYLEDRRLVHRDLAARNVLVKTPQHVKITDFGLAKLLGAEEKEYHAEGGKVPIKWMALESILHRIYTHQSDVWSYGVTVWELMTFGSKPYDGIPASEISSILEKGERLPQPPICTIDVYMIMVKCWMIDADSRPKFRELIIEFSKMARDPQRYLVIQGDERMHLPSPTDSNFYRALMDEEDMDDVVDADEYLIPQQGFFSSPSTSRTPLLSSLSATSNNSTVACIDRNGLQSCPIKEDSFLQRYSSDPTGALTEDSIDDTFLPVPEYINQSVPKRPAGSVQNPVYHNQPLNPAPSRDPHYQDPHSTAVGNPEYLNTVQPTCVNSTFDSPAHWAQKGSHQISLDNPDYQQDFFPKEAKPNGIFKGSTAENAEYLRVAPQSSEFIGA

SMILES	IC50 [1]	Ratio IC50 [2]	IC50 [3]	IC50 [4]
C/N=N/Nc1ccc2ncnc(Nc3cccc(C)c3)c2c1	36 µM	10	–	–
Cc1cccc(Nc2ncnc3ccc(N)cc23)c1	59 µM	–	–	–
CN(CCN(C)Cc1ccc(C(=O)Nc2ccc3ncnc(Nc4cccc(Cl)c4)c3c2)cc1)CCn1nc(-c2ccc(Cl)cc2)c2c(N)ncnc21	–	–	2.9 µM	0.32 µM
